Measured values published in patent US20120015012A1, “COSMETIC COMPOSITION CONTAINING KETOGLUCONIC ACID DERIVATIVES” (SOLIANCE, priority 2009, published 2012).
Counter-ions that a name gives are not always drawn. Marks after values point to notes of the source that are not given here.

Key:
[1] = test system: normal adult human dermal fibroblasts; assay: Neosynthesis of elastin in normal adult human dermal fibroblasts cultured in monolayers (spectrocolorimetric method on culture media); type: cell-based; settings: incubation 96 hours; for increase in the neosynthesis of elastin: versus control
Protocol: (§1) Confluent monolayers of normal human dermal fibroblasts were obtained by culturing cells obtained from abdominoplasty performed on a person. The fibroblasts are isolated by enzymatic digestion using Dispase and collagenase and then cultivated in DMEM (Dulbecco's Modified Eagle's Medium) and Ham's F12 medium in (1:1) ratio containing 10% of fetal calf serum, antibiotics and amphotericin B.
The reference activator used is ascorbic acid at a concentration of 100 μg/ml.
(§2) The fibroblasts were incubated for 96 hours at 37° C., under humid atmosphere and 5% CO2, in the absence (culture medium only) or in the presence of the reference product, or of increasing concentrations of test products (10; 100 and 1000 μg/ml) for both products. The test products were dissolved directly in the culture medium.
At the end of the incubation time, the elastin contained in the culture media was quantified by a spectrocolorimetric method.
At the end of the incubation time, the proteins contained in the cellular lysates were quantified by Bradford's spectrocolorimetric method.
The results are given in the form of ng of elastin per μg of total proteins of the cell lawn (mean±standard deviation, SD). The statistical significance of the differences observed between the “Control” and “Reference Product” conditions was evaluated by a Student test (Student t-test). The statistical significance of the differences observed between the “Control” and “Test Products” conditions was evaluated product by product, by a one-way analysis of variance (One Way ANOVA or One Way Anova on Ranks+), followed, when necessary, by a Holm-Sidak or Dunn's test (*: p<0.05).

[2] = test system: normal adult human dermal fibroblasts; assay: Neosynthesis of hyaluronic acid in normal adult human dermal fibroblasts cultured in monolayers (ELISA on culture media); type: cell-based; settings: incubation 24 hours
Protocol: as §1, with “The fibroblasts were isolated by” for “The fibroblasts are isolated by”, “collagenase and were then cultured” for “collagenase and then cultivated”, “were then cultured in DMEM” for “and then cultivated in DMEM”
The reference activator used is transforming growth factor β (TGF-β) at a concentration of 10 ng/ml.
as §2, with “24” for “96”, “under a” for “under”, “(10,” for “(10;”
At the end of the incubation period, the hyaluronic acid contained in the culture media was quantified using a sensitive and specific ELISA kit.
At the end of the incubation period, the proteins contained in the cellular lysates were quantified by Bradford's spectrocolorimetric method.
The results are given in the form of ng of hyaluronic acid per μg of total proteins of the cell lawn (mean±standard deviation, SD). The statistical significance of the differences observed between the “Control” and “Reference Product” conditions was evaluated by a Student test (Student t-test). The statistical significance of the differences observed between the “Control” and “Test Products” conditions was evaluated product by product, by a one-way analysis of variance (One Way ANOVA or One Way Anova on Ranks+), followed, when necessary, by a Holm-Sidak or Dunn's test (*: p<0.05).

| Compound | production of elastin, % control ([1]; 10 μg/ml) | production of elastin, mean value ([1]; 10 μg/ml) | production of elastin, % control ([1]; 100 μg/ml) | production of elastin, mean value ([1]; 100 μg/ml) | increase in the neosynthesis of elastin ([1]; 100 μg/ml) | production of elastin, % control ([1]; 1000 μg/ml) | production of elastin, mean value ([1]; 1000 μg/ml) | increase in the neosynthesis of elastin ([1]; 1000 μg/ml) | production of hyaluronic acid, % control ([2]; 10 μg/ml) | production of hyaluronic acid, mean value ([2]; 10 μg/ml) | production of hyaluronic acid, % control ([2]; 100 μg/ml) | production of hyaluronic acid, mean value ([2]; 100 μg/ml) | increase in the neosynthesis of hyaluronic acid ([2]; 100 μg/ml, versus control) | production of hyaluronic acid, % control ([2]; 1000 μg/ml) | production of hyaluronic acid, mean value ([2]; 1000 μg/ml) | increase in the neosynthesis of hyaluronic acid ([2]; 1000 μg/ml, versus control) | also measured |
| --- | --- | --- | --- | --- | --- | --- | --- | --- | --- | --- | --- | --- | --- | --- | --- | --- | --- |
| O=C(O)C(=O)C(O)C(O)C(O)CO (stereo not shown) [2KO, calcium salt of 2-keto-(D)-gluconic acid] | 139.7 % control | 12.6* ng of elastin per μg of total proteins | 144.6 % control | 13.1* ng of elastin per μg of total proteins | 44.6% | 135.8 % control | 12.3* ng of elastin per μg of total proteins | 35.8% | 101.2 % control | 18.5 ng of hyaluronic acid per μg of total proteins | 136.3 % control | 25.0* ng of hyaluronic acid per μg of total proteins | 36.3% | 192.7 % control | 35.3* ng of hyaluronic acid per μg of total proteins | 92.7% | increase in the neosynthesis of elastin ([1]; 10 μg/ml): 39.7% |
| O=C([O-])C(O)C(O)C(O)C(=O)CO.[K+] (stereo not shown) [5KO, potassium salt of 5-keto-(D)-gluconic acid] | 104.8 % control | 9.5 ng of elastin per μg of total proteins | 118.9 % control | 10.7 ng of elastin per μg of total proteins | 18.9% | 184.4 % control | 16.7* ng of elastin per μg of total proteins | 84.4% | 123.3 % control | 22.6* ng of hyaluronic acid per μg of total proteins | 144.9 % control | 26.6* ng of hyaluronic acid per μg of total proteins | 44.9% | 144.0 % control | 26.4* ng of hyaluronic acid per μg of total proteins | 44.0% | increase in the neosynthesis of hyaluronic acid ([2]; 10 μg/ml, versus control): 23.3% |
| O=C1O[C@H]([C@@H](O)CO)C(O)=C1O [Ascorbic acid, ascorbic acid, reference compound] |  |  | 140.3 % control | 12.7*** ng of elastin per μg of total proteins | 40.3% |  |  |  |  |  |  |  |  |  |  |  |  |
| TGF-β: reference activator, transforming growth factor β (TGF-β), used at 10 ng/ml [reference compound] |  |  |  |  |  |  |  |  |  |  |  |  |  |  |  |  | production of hyaluronic acid, % control ([2]; 10 ng/ml): 226.3 % control; production of hyaluronic acid, mean value ([2]; 10 ng/ml): 41.5*** ng of hyaluronic acid per μg of total proteins; increase in fibroblast production of hyaluronic acid ([2]; 10 ng/ml, versus control): 126.3% |
